Assay results as given in patent US10195156B2, “Compounds and compositions for intracellular delivery of agents” (ModernaTX, Inc., priority 2015, dated 2019).
Like-named read-outs stand apart in the source and are kept apart here.

Experiments:
[1] = pKa of nanoparticle compositions; format: physicochemical
[2] = Particle size and polydispersity index of nanoparticle compositions (Zetasizer Nano ZS); format: physicochemical
Procedure, shortened: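 Nanoparticle compositions are diluted in 1×PBS, then size and polydispersity index are read on a Zetasizer Nano ZS instrument.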

[3] = Concentration of RNA in nanoparticle composition (ultraviolet-visible spectroscopy); format: physicochemical; details: Table 5; hEPO mRNA; 40:20:38.5:1.5 Lipid:DOPE:Chol:PEG-DMG
Experimental: Ultraviolet-visible spectroscopy can be used to determine the concentration of a therapeutic and/or prophylactic agent (e.g., RNA) in nanoparticle compositions. 100 μL of the diluted formulation in 1×PBS is added to 900 μL of a 4:1 (v/v) mixture of methanol and chloroform. After mixing, the absorbance spectrum of the solution is recorded, for example, between 230 nm and 330 nm on a DU 800 spectrophotometer (Beckman Coulter, Beckman Coulter, Inc., Brea, Calif.). The concentration of therapeutic and/or prophylactic agent in the nanoparticle composition can be calculated based on the extinction coefficient of the therapeutic and/or prophylactic agent used in the composition and on the difference between the absorbance at a wavelength of, for example, 260 nm and the baseline value at a wavelength of, for example, 330 nm.

[4] = Lipid levels in liver and spleen 48 hours after administration; format: in vivo, rats; details: 48 hours after administration; for concentration at 48 h: Sprague-Dawley, rat, intravenous
Experimental: Formulations were administered intravenously to rats (n=3 or 6) at a dosage of 0.2 mg/kg or 0.5 mg/kg (mpk) and hEPO levels measured at 3, 6, and 24 hour time points. After the 48 hour time point, livers and spleens were harvested and frozen.
The amount of lipid in the liver and spleen 48 hours after administration of a nanoparticle composition was also measured. […] In contrast, approximately 60% of doses including MC3 or Compound 22 remained in the liver after 48 hours. Less than 3% of the dose remained in the spleen for each composition tested.

[5] = Encapsulation efficiency of RNA (QUANT-IT RIBOGREEN RNA assay); format: physicochemical
Procedure, shortened: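 Nanoparticle samples diluted to ~5 μg/mL RNA in TE buffer (pH 7.5), incubated with or without 2% Triton X-100 solution at 37 °C for 15 min, then RiboGreen added. Fluorescence read at ~480/520 nm, blank-subtracted; free RNA % = intact over Triton-disrupted signal.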

[6] = tested on: hEPO mRNA expression; experiment: Expression of hEPO in rats after intravenous administration; format: in vivo; details: for hEPO (pg/mL) 3 hours / hEPO (pg/mL) 6 hours / hEPO (pg/mL) 24 hours: Table 6, 0.2 mg/kg or 0.5 mg/kg; for Lipid/MC3 hEPO S.D. (rats): hEPO expression relative to MC3, S.D. rats, intravenous
Experimental: PBS (phosphate buffered saline) is used as control.
Formulations were prepared according to Table 5 and included mRNA encoding hEPO.
[…] After the 48 hour time point, livers and spleens were harvested and frozen.

[7] = tested on: IL-6; experiment: Cytokine production induced by sample formulations: IL-6; format: in vivo; details: Table 4; mice, i.v., 0.5 mpk, 6 hours; in pg/mL (unit assumed)
Procedure, shortened: (§1)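 Mice received nanoparticle formulations intravenously at 0.5 mpk, with standard MC3 formulation and PBS as controls. Cytokine concentrations were measured 6 hours after dosing.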

[8] = tested on: luciferase (Luc) mRNA expression; experiment: Expression of Luc induced by sample formulations, whole-body bioluminescence after intravenous administration; format: in vivo; details: Table 2, mice, i.v., 0.5 mg/kg
Procedure, shortened: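 Mice (n=6) dosed intravenously with Luc mRNA nanoparticle formulations at 0.5 mg/kg. Whole-body bioluminescence measured at 3, 6 and 24 h. Standard MC3 formulation and PBS control run alongside.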

[9] = tested on: IP-10; experiment: Cytokine production induced by sample formulations: IP-10; format: in vivo; details: Table 4; mice, i.v., 0.5 mpk, 6 hours; in pg/mL (unit assumed)
Procedure, shortened: as §1

[10] = tested on: modified luciferase expression; experiment: Expression of Luc in different organs (liver, lung, spleen, femur) 6 hours after intravenous administration; format: in vivo; details: i.v., 0.5 mpk
Experimental: The efficacy of the nanoparticle compositions presented in Tables 1, 1a, 17-1, 19-1, 20-1 and 21-1 was further evaluated by measuring the expression of modified luciferase in the liver, lung, spleen, and femur upon administration of a given composition. Formulations were administered intravenously to mice (n=3) at a dosage of 0.5 mpk and bioluminescence measured after 6 hours. The standard MC3 formulation and a PBS control were also tested.

[11] = Table 1, # formulated with hEPO mRNA
[12] = Table 5, hEPO mRNA, 40:20:38.5:1.5 Lipid:DOPE:Chol:PEG-DMG
[13] = liver, read-out: Lipid in liver
[14] = spleen, read-out: Lipid in spleen
[15] = Table 1, rows without footnote mark

| pKa [1, 11] | pKa [1, 12] | PDI [2, 11] | Size (nm) [2, 11] [nm] | PDI [2, 12] | Size (nm) [2, 12] [nm] | Conc. [3] [µg/mL] | concentration at 48 h [4, 13] [ng/g] | concentration at 48 h [4, 14] [ng/g] | % remaining dose in liver ([4]; liver) [%] | % remaining dose in spleen ([4]; spleen) [%] | EE (%) [5, 11] [%] | EE (%) [5, 12] [%] | SMILES | hEPO (pg/mL) 3 hours ([6]; rats, i.v.) [pg/mL] | hEPO (pg/mL) 6 hours ([6]; rats, i.v.) [pg/mL] | hEPO (pg/mL) 24 hours ([6]; rats, i.v.) [pg/mL] | Lipid/MC3 hEPO S.D. (rats) [6] | further results |
| --- | --- | --- | --- | --- | --- | --- | --- | --- | --- | --- | --- | --- | --- | --- | --- | --- | --- | --- |
| 6.28 | 6.282 | 0.140 | 77.4 | 0.14 | 77.4 | 665.11 | 597 | 293 | 0.79 | 0.026 | 98.2 | 98.22 | CCCCCCCCCCCCN(CCCCCCCCCCCC)CCN(CCCCCCCCCCCC)CCN1CCN(CCN(CCCCCCCCCCCC(=O)OC)CCCCCCCCCCCC(=O)OC)CC1 [Compound 16, Dimethyl 12,12′-((2-(4-(2-((2-(didodecylamino)ethyl)(dodecyl)amino)ethyl)piperazin-1-yl)ethyl)azanediyl)didodecanoate] | 35387 | 41720 | 17184 | 0.031 | hEPO expression in rats, comparison (in words) ([6]; rats, i.v., 0.2 or 0.5 mg/kg, Tables 6, 7a): lowest hEPO expression at each time point |
| 6.32 | 6.323 | 0.120 | 100.3 | 0.12 | 100.3 | 713.00 | 3070 | 971 | 4.22 | 0.089 | 90.2 | 90.15 | CCCCCCCCCCCCN(CCCCCCCCCCCC)CCN(CCCCCCCCCCCC)CCN1CCN(CCN(CCCCCCCCCCCC)CCCCCCCCCCCC(=O)OC)CC1 [Compound 15, Methyl 12-((2-(4-(2-((2-(didodecylamino)ethyl)(dodecyl)amino)ethyl)piperazin-1-yl)ethyl)(dodecyl)amino)dodecanoate] | 103773 | 125320 | 67965 | 0.095 |  |
| 6.15 | 6.153 | 0.130 | 75.4 | 0.13 | 75.4 | 564.97 | 36800 | 3890 | 58.7 | 0.41 | 98.3 | 98.29 | CCCCCCCCCCCCN(CCCCCCCCCCCC)CCN(CCCCCCCCCCCC)CCN1CCN(CCN(CCCCCCCC)CCCCCCCC)CC1 [Compound 22, N^1-(2-(4-(2-(Dioctylamino)ethyl)piperazin-1-yl)ethyl)-N^1,N^2,N^2-tridodecylethane-1,2-diamine] | 181627 | 267680 | 75571 | 0.20 | dose remaining in the liver after 48 hours ([4]; liver): approximately 60% |
|  |  |  |  | 0.14 | 114.5 | 1264.28 |  |  |  |  |  | 94.39 | CCCCCCCCCCCCCCN(CCCCCCCCCCCCCC)CCN1CCN(CCN(CCCCCCCCC)CCN(CCCCCCCCC)CCCCCCCCC)CC1 [Compound 20, N^1-(2-(4-(2-(Ditetradecylamino)ethyl)piperazin-1-yl)ethyl)-N^1,N^2,N^2-trinonylethane-1,2-diamine] |  | 227420 |  |  | IL-6 [7]: 127; pKa [1, 15]: 6.12; PDI [2, 15]: 0.150; Size (nm) ([2]; Table 1, rows without footnote mark (lipid:DOPE:cholesterol:PEG-DMG 40:20:38.5:1.5, Luc mRNA; MC3 standard formulation)): 106.4 nm; Total Flux 3 hours ([8]; 3 hours): 1.00E+11; Total Flux 6 hours ([8]; 6 hours): 1.11E+11; Total Flux 24 hours ([8]; 24 hours): 4.60E+09; IP-10 [9]: 2080; Total Flux Femur ([10]; Table 3, mice, femur): 8.91E+06; Total Flux Liver ([10]; Table 3, mice, liver): 1.42E+10; Total Flux Lung ([10]; Table 3, mice, lung): 1.46E+08; Total Flux Spleen ([10]; Table 3, mice, spleen): 6.11E+07; total flux in organs, rank or organ comparison (in words) ([10]; mice, each organ or overall): highest total flux; EE (%) [5, 15]: 84.2% |
